Where two headings read alike, the source gives them in different places.
Molecular target: T1, BRM (Homo sapiens, UniProt P51531)
T1 construct: In-Cell Western Screen of BRM Degradation in SW1573 Cells; endogenous in cells; host or cells: SW1573
Test: In-cell Western screen of BRM degradation in SW1573 cells (Dmax and DC50)
Type: cell-based
Conditions: for Dmax: SW1573, % degraded, when tested at the top concentration of between 0.3 and 10 μM, read-out: BRM Dmax (%); for DC50: read-out: BRM DC50
Procedure, shortened: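 Near-infrared imaging on a LI-COR Odyssey (800 and 680 nm channels) quantifies BRM remaining in fixed SW1573 cells. Cells are dosed for 18-20 h at 0.1% final DMSO, and degradation is expressed as Dmax and DC50.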

T1 sequence (P51531 whole entry): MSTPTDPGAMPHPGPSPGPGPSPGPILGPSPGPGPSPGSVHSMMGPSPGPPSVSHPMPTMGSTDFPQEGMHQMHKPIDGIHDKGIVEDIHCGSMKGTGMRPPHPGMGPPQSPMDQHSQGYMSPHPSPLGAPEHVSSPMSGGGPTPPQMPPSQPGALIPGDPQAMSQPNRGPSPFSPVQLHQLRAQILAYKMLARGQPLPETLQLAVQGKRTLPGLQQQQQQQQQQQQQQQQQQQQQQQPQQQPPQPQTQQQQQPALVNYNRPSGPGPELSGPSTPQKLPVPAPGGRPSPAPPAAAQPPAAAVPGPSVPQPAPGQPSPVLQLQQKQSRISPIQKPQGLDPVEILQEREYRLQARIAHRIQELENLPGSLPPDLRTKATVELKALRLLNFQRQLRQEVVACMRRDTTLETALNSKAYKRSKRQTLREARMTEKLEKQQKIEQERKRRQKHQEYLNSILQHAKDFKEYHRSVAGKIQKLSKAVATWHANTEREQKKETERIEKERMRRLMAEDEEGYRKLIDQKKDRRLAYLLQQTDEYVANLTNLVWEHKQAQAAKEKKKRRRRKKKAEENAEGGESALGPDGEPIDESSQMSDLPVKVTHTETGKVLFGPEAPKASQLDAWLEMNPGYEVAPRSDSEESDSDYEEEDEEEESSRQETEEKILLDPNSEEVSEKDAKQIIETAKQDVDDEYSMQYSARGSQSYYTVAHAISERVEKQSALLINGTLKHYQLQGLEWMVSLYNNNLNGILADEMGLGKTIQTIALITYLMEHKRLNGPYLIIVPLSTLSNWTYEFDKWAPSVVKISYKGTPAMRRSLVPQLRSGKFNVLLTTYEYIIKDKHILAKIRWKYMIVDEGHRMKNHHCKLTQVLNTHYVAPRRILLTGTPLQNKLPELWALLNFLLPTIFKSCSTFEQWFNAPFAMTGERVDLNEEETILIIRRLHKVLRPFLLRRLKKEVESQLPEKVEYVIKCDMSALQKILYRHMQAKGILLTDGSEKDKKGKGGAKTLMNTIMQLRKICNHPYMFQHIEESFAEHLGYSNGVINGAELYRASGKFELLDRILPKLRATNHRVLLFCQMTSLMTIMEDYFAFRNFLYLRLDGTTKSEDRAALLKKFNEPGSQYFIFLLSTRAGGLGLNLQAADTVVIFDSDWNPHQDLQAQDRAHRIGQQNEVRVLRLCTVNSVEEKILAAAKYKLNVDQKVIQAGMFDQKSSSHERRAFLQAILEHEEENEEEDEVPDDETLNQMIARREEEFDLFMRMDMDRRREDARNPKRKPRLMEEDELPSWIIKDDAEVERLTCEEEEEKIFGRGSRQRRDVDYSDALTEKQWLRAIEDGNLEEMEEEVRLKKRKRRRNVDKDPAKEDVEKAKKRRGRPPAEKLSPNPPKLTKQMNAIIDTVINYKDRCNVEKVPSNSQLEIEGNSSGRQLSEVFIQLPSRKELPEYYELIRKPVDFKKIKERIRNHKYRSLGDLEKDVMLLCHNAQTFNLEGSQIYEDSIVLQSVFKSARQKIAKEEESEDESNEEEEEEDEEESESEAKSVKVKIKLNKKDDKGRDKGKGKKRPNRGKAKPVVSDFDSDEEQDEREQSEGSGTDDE

Structure (SMILES)	Dmax [%]	DC50 (target protein degradation) [nM]	DC50 (degradation of BRM) [nM]
Cc1ncsc1-c1ccc([C@H](C)NC(=O)[C@@H]2C[C@@H](O)CN2C(=O)[C@@H](c2cc(OCCN3CCC(O[C@H]4C[C@H](OCC#CCn5cc(-c6cc(-c7ccccc7O)nnc6N)cn5)C4)CC3)no2)C(C)C)cc1 [compound 395, (2S,4R)-1-((R)-2-(3-(2-(4-((1r,3R)-3-((4-(4-(3-amino-6-(2-hydroxyphenyl)pyridazin-4-yl)-1H-pyrazol-1-yl)but-2-yn-1-yl)oxy)cyclobutoxy)piperidin-1-yl)ethoxy)isoxazol-5-yl)-3-methylbutanoyl)-4-hydroxy-N-((S)-1-(4-(4-methylthiazol-5-yl)phenyl)ethyl)pyrrolidine-2-carboxamide]	> 75	< 2.5	
Cc1ncsc1-c1ccc([C@H](C)NC(=O)[C@@H]2C[C@@H](O)CN2C(=O)[C@@H](c2cc(OCCN[C@H]3CC[C@H](O[C@H]4C[C@H](Oc5cc(N6C7CCC6CN(c6cc(-c8ccccc8O)nnc6N)C7)ccn5)C4)CC3)no2)C(C)C)cn1 [compound 396, (2S,4R)-1-((2R)-2-(3-(2-(((1R,4R)-4-((1r,3R)-3-((4-(3-(3-amino-6-(2-hydroxyphenyl)pyridazin-4-yl)-3,8-diazabicyclo[3.2.1]octan-8-yl)pyridin-2-yl)oxy)cyclobutoxy)cyclohexyl)amino)ethoxy)isoxazol-5-yl)-3-methylbutanoyl)-4-hydroxy-N-((S)-1-(6-(4-methylthiazol-5-yl)pyridin-3-yl)ethyl)pyrrolidine-2-carboxamide]	> 75	2.5 to 10	
Cc1nccn1-c1ccc([C@H](C)NC(=O)[C@@H]2C[C@@H](O)CN2C(=O)[C@H](c2cc(OCCN3CCC(O[C@H]4C[C@H](Oc5cc(N6C7CCC6CN(c6cc(-c8ccccc8O)nnc6N)C7)ccn5)C4)CC3)no2)C(C)C)cn1 [compound 397, (2S,4R)-1-((2S)-2-(3-(2-(4-((1r,3S)-3-((4-(3-(3-amino-6-(2-hydroxyphenyl)pyridazin-4-yl)-3,8-diazabicyclo[3.2.1]octan-8-yl)pyridin-2-yl)oxy)cyclobutoxy)piperidin-1-yl)cthoxy)isoxazol-5-yl)-3-methylbutanoyl)-4-hydroxy-N-((S)-1-(6-(2-methyl-1H-imidazol-1-yl)pyridin-3-yl)ethyl)pyrrolidine-2-carboxamide]		> 30	
Cc1nccn1-c1ccc([C@H](C)NC(=O)[C@@H]2C[C@@H](O)CN2C(=O)[C@@H](c2cc(OCCN3CCC(O[C@H]4C[C@H](Oc5cc(N6C7CCC6CN(c6cc(-c8ccccc8O)nnc6N)C7)ccn5)C4)CC3)no2)C(C)C)cn1 [compound 398, (2S,4R)-1-((2R)-2-(3-(2-(4-((1r,3R)-3-((4-(3-(3-amino-6-(2-hydroxyphenyl)pyridazin-4-yl)-3,8-diazabicyclo[3.2.1]octan-8-yl)pyridin-2-yl)oxy)cyclobutoxy)piperidin-1-yl)ethoxy)isoxazol-5-yl)-3-methylbutanoyl)-4-hydroxy-N-((S)-1-(6-(2-methyl-1H-imidazol-1-yl)pyridin-3-yl)ethyl)pyrrolidine-2-carboxamide]	> 75	< 2.5	
Cc1ncsc1-c1ccc([C@H](C)NC(=O)[C@@H]2C[C@@H](O)CN2C(=O)[C@H](c2cc(OCC#Cc3ncc(O[C@H]4C[C@H](Oc5cc(N6C7CCC6CN(c6cc(-c8ccccc8O)nnc6N)C7)ccn5)C4)cn3)no2)C(C)C)cn1 [compound 399, (2S,4R)-1-((2S)-2-(3-((3-(5-((1r,3S)-3-((4-(3-(3-amino-6-(2-hydroxyphenyl)pyridazin-4-yl)-3,8-diazabicyclo[3.2.1]octan-8-yl)pyridin-2-yl)oxy)cyclobutoxy)pyrimidin-2-yl)prop-2-yn-1-yl)oxy)isoxazol-5-yl)-3-methylbutanoyl)-4-hydroxy-N-((S)-1-(6-(4-methylthiazol-5-yl)pyridin-3-yl)ethyl)pyrrolidine-2-carboxamide]		> 30	
Cc1ncsc1-c1ccc([C@H](C)NC(=O)[C@@H]2C[C@@H](O)CN2C(=O)[C@@H](c2cc(OCC#Cc3ncc(O[C@H]4C[C@H](Oc5cc(N6C7CCC6CN(c6cc(-c8ccccc8O)nnc6N)C7)ccn5)C4)cn3)no2)C(C)C)cn1 [compound 400, (2S,4R)-1-((2R)-2-(3-((3-(5-((1r,3R)-3-((4-(3-(3-amino-6-(2-hydroxyphenyl)pyridazin-4-yl)-3,8-diazabicyclo[3.2.1]octan-8-yl)pyridin-2-yl)oxy)cyclobutoxy)pyrimidin-2-yl)prop-2-yn-1-yl)oxy)isoxazol-5-yl)-3-methylbutanoyl)-4-hydroxy-N-((S)-1-(6-(4-methylthiazol-5-yl)pyridin-3-yl)ethyl)pyrrolidine-2-carboxamide]	> 75	< 2.5	
Cc1ncsc1-c1ccc([C@H](C)NC(=O)[C@@H]2C[C@@H](O)CN2C(=O)[C@H](c2cc(N3CCN(CCN4CCC(O[C@H]5C[C@H](Oc6cc(N7C8CCC7CN(c7cc(-c9ccccc9O)nnc7N)C8)ccn6)C5)CC4)CC3)no2)C(C)C)cn1 [compound 401, (2S,4R)-1-((2S)-2-(3-(4-(2-(4-((1r,3r)-3-((4-(3-(3-amino-6-(2-hydroxyphenyl)pyridazin-4-yl)-3,8-diazabicyclo[3.2.1]octan-8-yl)pyridin-2-yl)oxy)cyclobutoxy)piperidin-1-yl)ethyl)piperazin-1-yl)isoxazol-5-yl)-3-methylbutanoyl)-4-hydroxy-N-((S)-1-(6-(4-methylthiazol-5-yl)pyridin-3-yl)ethyl)pyrrolidine-2-carboxamide]			> 30
Cc1ncsc1-c1ccc([C@H](C)NC(=O)[C@@H]2C[C@@H](O)CN2C(=O)[C@@H](c2cc(N3CCN(CCN4CCC(O[C@H]5C[C@H](Oc6cc(N7C8CCC7CN(c7cc(-c9ccccc9O)nnc7N)C8)ccn6)C5)CC4)CC3)no2)C(C)C)cn1 [compound 402, (2S,4R)-1-((2R)-2-(3-(4-(2-(4-((1r,3r)-3-((4-(3-(3-amino-6-(2-hydroxyphenyl)pyridazin-4-yl)-3,8-diazabicyclo[3.2.1]octan-8-yl)pyridin-2-yl)oxy)cyclobutoxy)piperidin-1-yl)ethyl)piperazin-1-yl)isoxazol-5-yl)-3-methylbutanoyl)-4-hydroxy-N-((S)-1-(6-(4-methylthiazol-5-yl)pyridin-3-yl)ethyl)pyrrolidine-2-carboxamide]	> 75		< 2.5
Cc1ncsc1-c1ccc([C@H](C)NC(=O)[C@@H]2C[C@@H](O)CN2C(=O)[C@H](c2cc(N3CCC(O[C@H]4C[C@H](Oc5cc(N6C7CCC6CN(c6cc(-c8ccccc8O)nnc6N)C7)ccn5)C4)CC3)no2)C(C)C)cc1 [compound 403, (2S,4R)-1-((2S)-2-(3-(4-((1r,3S)-3-((4-(3-(3-amino-6-(2-hydroxyphenyl)pyridazin-4-yl)-3,8-diazabicyclo[3.2.1]octan-8-yl)pyridin-2-yl)oxy)cyclobutoxy)piperidin-1-yl)isoxazol-5-yl)-3-methylbutanoyl)-4-hydroxy-N-((S)-1-(4-(4-methylthiazol-5-yl)phenyl)ethyl)pyrrolidine-2-carboxamide]	> 75		2.5 to 10

Reference: patent publication US12539292B2, “BRM targeting compounds and associated methods of use” (Arvinas Operations, Inc., priority 2018, dated 2026)
